# According to patent US6770451B2, “Screening for enzyme inhibitors” (Discoverx, Inc., priority 2001, dated 2004):
# Assays:
# STK [1] = assay: DiscoveRx STK HitHunter Assay; format: biochemical
# STK [2] = assay: Fluorescent Polarization STK Assay (FP Assay); format: biochemical
SMILES,IC50 (STK [1]) [nM],IC50 (STK [2]) [nM]
"COC1C(N(C)CC(=O)O)CC2OC1(C)n1c3ccccc3c3c4c(c5c6ccccc6n2c5c31)C(=O)NC4 (stereo not shown) [STA-CM, N-carboxymethylstaurosporine]",92,220
CN[C@@H]1C[C@H]2O[C@@](C)([C@@H]1OC)n1c3ccccc3c3c4c(c5c6ccccc6n2c5c31)C(=O)NC4 [staurosporine],9,22
